Reference: ChEMBL document CHEMBL5724914, “Linking interpersonal differences in gut microbiota composition and drug biotransformation activity” (2024)

Legend:
[1] = human gut metagenome, 24 h, 2 µM
[2] = The drug is tested on WLS-086 corresponding to human gut metagenome with ENA study accession number: PRJEB37062 and ENA sample accession number: ERS12561752 for biotransformation under anaerobic condition. The drug concentrations were measured over 9 timepoints collected between 0 and 24 hours of incubation by liquid-chromatography-coupled mass spectrometry (LC–MS); conditions: 2 µM
[3] = human gut metagenome, 24 h, 2 µM; remark: listed apart in the source
[4] = human gut metagenome, 24 h, 2 µM; remark: listed apart in the source
[5] = The drug is tested on Z-003 corresponding to pig gut metagenome with ENA study accession number: PRJEB37062 and ENA sample accession number: ERS12561803 for biotransformation under anaerobic condition. The drug concentrations were measured over 9 timepoints collected between 0 and 24 hours of incubation by liquid-chromatography-coupled mass spectrometry (LC–MS); conditions: 2 µM
[6] = human gut metagenome, 24 h, 2 µM; remark: listed apart in the source
[7] = The drug is tested on Z-027 corresponding to metagenome with ENA study accession number: PRJEB37062 and ENA sample accession number: ERS12561826 for biotransformation under anaerobic condition. The drug concentrations were measured over 9 timepoints collected between 0 and 24 hours of incubation by liquid-chromatography-coupled mass spectrometry (LC–MS); conditions: 2 µM
[8] = The drug is tested on Z-014 corresponding to rat gut metagenome with ENA study accession number: PRJEB37062 and ENA sample accession number: ERS12561814 for biotransformation under anaerobic condition. The drug concentrations were measured over 9 timepoints collected between 0 and 24 hours of incubation by liquid-chromatography-coupled mass spectrometry (LC–MS); conditions: 2 µM
[9] = human gut metagenome, 24 h, 2 µM; remark: listed apart in the source
[10] = The drug is tested on Z-008 corresponding to metagenome with ENA study accession number: PRJEB37062 and ENA sample accession number: ERS12561808 for biotransformation under anaerobic condition. The drug concentrations were measured over 9 timepoints collected between 0 and 24 hours of incubation by liquid-chromatography-coupled mass spectrometry (LC–MS); conditions: 2 µM
[11] = The drug is tested on WLS-007 corresponding to human gut metagenome with ENA study accession number: PRJEB37062 and ENA sample accession number: ERS12561742 for biotransformation under anaerobic condition. The drug concentrations were measured over 9 timepoints collected between 0 and 24 hours of incubation by liquid-chromatography-coupled mass spectrometry (LC–MS); conditions: 2 µM
[12] = The drug is tested on Z-019 corresponding to rat gut metagenome with ENA study accession number: PRJEB37062 and ENA sample accession number: ERS12561818 for biotransformation under anaerobic condition. The drug concentrations were measured over 9 timepoints collected between 0 and 24 hours of incubation by liquid-chromatography-coupled mass spectrometry (LC–MS); conditions: 2 µM
[13] = The drug is tested on Z-010 corresponding to metagenome with ENA study accession number: PRJEB37062 and ENA sample accession number: ERS12561810 for biotransformation under anaerobic condition. The drug concentrations were measured over 9 timepoints collected between 0 and 24 hours of incubation by liquid-chromatography-coupled mass spectrometry (LC–MS); conditions: 2 µM
[14] = human gut metagenome, 24 h, 2 µM; remark: listed apart in the source
[15] = The drug is tested on Z-002 corresponding to rabbit gut metagenome with ENA study accession number: PRJEB37062 and ENA sample accession number: ERS12561802 for biotransformation under anaerobic condition. The drug concentrations were measured over 9 timepoints collected between 0 and 24 hours of incubation by liquid-chromatography-coupled mass spectrometry (LC–MS); conditions: 2 µM
[16] = The drug is tested on Z-023 corresponding to metagenome with ENA study accession number: PRJEB37062 and ENA sample accession number: ERS12561822 for biotransformation under anaerobic condition. The drug concentrations were measured over 9 timepoints collected between 0 and 24 hours of incubation by liquid-chromatography-coupled mass spectrometry (LC–MS); conditions: 2 µM
[17] = human gut metagenome, 24 h, 2 µM; remark: listed apart in the source
[18] = The drug is tested on WLS-069 corresponding to human gut metagenome with ENA study accession number: PRJEB37062 and ENA sample accession number: ERS12561748 for biotransformation under anaerobic condition. The drug concentrations were measured over 9 timepoints collected between 0 and 24 hours of incubation by liquid-chromatography-coupled mass spectrometry (LC–MS); conditions: 2 µM
[19] = The drug is tested on WLS-052 corresponding to human gut metagenome with ENA study accession number: PRJEB37062 and ENA sample accession number: ERS12561747 for biotransformation under anaerobic condition. The drug concentrations were measured over 9 timepoints collected between 0 and 24 hours of incubation by liquid-chromatography-coupled mass spectrometry (LC–MS); conditions: 2 µM
[20] = The drug is tested on Z-020 corresponding to rabbit gut metagenome with ENA study accession number: PRJEB37062 and ENA sample accession number: ERS12561819 for biotransformation under anaerobic condition. The drug concentrations were measured over 9 timepoints collected between 0 and 24 hours of incubation by liquid-chromatography-coupled mass spectrometry (LC–MS); conditions: 2 µM
Also: call rule not given here.

SMILES	Bacterial Biotransformation [1]	Bacterial Biotransformation [2]	Bacterial Biotransformation [3]	Bacterial Biotransformation [4]	Bacterial Biotransformation [5]	Bacterial Biotransformation [6]	Bacterial Biotransformation [7]	Bacterial Biotransformation [8]	Bacterial Biotransformation [9]	Bacterial Biotransformation [10]	Bacterial Biotransformation [11]	Bacterial Biotransformation [12]	Bacterial Biotransformation [13]	Bacterial Biotransformation [14]	Bacterial Biotransformation [15]	Bacterial Biotransformation [16]	Bacterial Biotransformation [17]	Bacterial Biotransformation [18]	Bacterial Biotransformation [19]	Bacterial Biotransformation [20]
CCCCCNC(=N)N/N=C/c1c[nH]c2ccc(OC)cc12.O=C(O)/C=C\C(=O)O [TEGASEROD MALEATE]	Compound NOT metabolized	Compound NOT metabolized	Compound NOT metabolized	Compound NOT metabolized	Compound NOT metabolized	Compound NOT metabolized	Compound NOT metabolized	Compound NOT metabolized	Compound NOT metabolized	Compound NOT metabolized	Compound NOT metabolized	Compound NOT metabolized	Compound metabolized	Compound NOT metabolized	Compound NOT metabolized	Compound metabolized	Compound NOT metabolized	Compound metabolized	Compound metabolized	–
CN1C[C@H](C(=O)N[C@]2(C)O[C@@]3(O)[C@@H]4CCCN4C(=O)[C@H](Cc4ccccc4)N3C2=O)C[C@@H]2c3cccc4[nH]cc(c34)C[C@H]21.CS(=O)(=O)O [DIHYDROERGOTAMINE MESYLATE]	–	–	–	–	Compound NOT metabolized	–	Compound NOT metabolized	Compound NOT metabolized	–	Compound NOT metabolized	–	Compound NOT metabolized	Compound NOT metabolized	–	Compound metabolized	Compound metabolized	–	–	–	Compound NOT metabolized
C#C[C@]1(OC(C)=O)CC[C@H]2[C@@H]3CCC4=CC(=O)CC[C@@H]4[C@H]3CC[C@@]21C [NORETHINDRONE ACETATE]	Compound metabolized	Compound NOT metabolized	Compound metabolized	Compound metabolized	Compound metabolized	–	Compound metabolized	–	Compound metabolized	Compound metabolized	–	Compound metabolized	Compound metabolized	–	Compound metabolized	Compound metabolized	Compound metabolized	Compound metabolized	Compound metabolized	Compound metabolized
O=C1C(CC[S+]([O-])c2ccccc2)C(=O)N(c2ccccc2)N1c1ccccc1 (stereo unspecified) [SULFINPYRAZONE]	Compound metabolized	Compound metabolized	Compound metabolized	Compound metabolized	Compound metabolized	Compound metabolized	Compound NOT metabolized	Compound NOT metabolized	Compound metabolized	Compound metabolized	Compound metabolized	Compound NOT metabolized	–	Compound metabolized	Compound metabolized	Compound metabolized	Compound metabolized	Compound metabolized	Compound metabolized	Compound NOT metabolized
CC(=O)OCC(=O)NCCCOc1cccc(CN2CCCCC2)c1 [ROXATIDINE ACETATE]	Compound metabolized	Compound metabolized	Compound metabolized	Compound metabolized	Compound metabolized	Compound metabolized	Compound metabolized	Compound metabolized	Compound metabolized	Compound metabolized	Compound metabolized	Compound NOT metabolized	Compound metabolized	Compound metabolized	–	Compound metabolized	–	–	Compound metabolized	Compound metabolized
COC1=C(OC)C(=O)C(CCCCCCCCCCO)=C(C)C1=O [IDEBENONE]	–	–	–	–	Compound metabolized	–	Compound NOT metabolized	Compound metabolized	–	–	Compound metabolized	Compound NOT metabolized	Compound metabolized	Compound metabolized	Compound metabolized	Compound metabolized	Compound metabolized	Compound metabolized	Compound metabolized	Compound metabolized
COc1ccc(Cc2nccc3cc(OC)c(OC)cc23)cc1OC [PAPAVERINE]	–	Compound metabolized	Compound metabolized	Compound metabolized	Compound metabolized	Compound metabolized	Compound NOT metabolized	Compound NOT metabolized	Compound NOT metabolized	Compound NOT metabolized	Compound metabolized	Compound NOT metabolized	–	Compound metabolized	Compound metabolized	Compound metabolized	Compound metabolized	Compound metabolized	Compound metabolized	Compound NOT metabolized
